# Test results reported in PubChem BioAssay (NCI).
#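 All cell lines were grown in 96-well plates and treated with compound for 48 hours. GI50 = concentration required for 50% inhibition of growth. Definition used: TGI = concentration required for complete inhibition of growth.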
# Tests used:
# Test in all cases: NCI-60 cell line screen, 48 h
# HCC-2998 colon = system: HCC-2998 colon
# SK-MEL-2 melanoma = system: SK-MEL-2 melanoma
# SF-268 CNS = system: SF-268 CNS
# SK-OV-3 ovarian = system: SK-OV-3 ovarian
# RXF 393 renal = system: RXF 393 renal
# MALME-3M melanoma = system: MALME-3M melanoma
# PC-3 prostate = system: PC-3 prostate
# UO-31 renal = system: UO-31 renal
# HT29 colon = system: HT29 colon
# HCT-116 colon = system: HCT-116 colon
# DU-145 prostate = system: DU-145 prostate
# MCF7 breast = system: MCF7 breast
# RPMI-8226 leukemia = system: RPMI-8226 leukemia
# A498 renal = system: A498 renal
# UACC-257 melanoma = system: UACC-257 melanoma
# NCI-H226 lung = system: NCI-H226 lung
# T-47D breast = system: T-47D breast
# SF-295 CNS = system: SF-295 CNS
# COLO 205 colon = system: COLO 205 colon
# SF-539 CNS = system: SF-539 CNS
# OVCAR-5 ovarian = system: OVCAR-5 ovarian
# OVCAR-3 ovarian = system: OVCAR-3 ovarian
# HOP-62 NSCLC = system: HOP-62 NSCLC
# U251 CNS = system: U251 CNS
# TK-10 renal = system: TK-10 renal
# SN12C renal = system: SN12C renal
# IGROV1 ovarian = system: IGROV1 ovarian
# EKVX NSCLC = system: EKVX NSCLC
# HL-60(TB) leukemia = system: HL-60(TB) leukemia
# K-562 leukemia = system: K-562 leukemia
# MDA-MB-231 breast = system: MDA-MB-231 breast
# CAKI-1 renal = system: CAKI-1 renal
# MDA-MB-468 breast = system: MDA-MB-468 breast
# NCI/ADR-RES ovarian = system: NCI/ADR-RES ovarian
# SW-620 colon = system: SW-620 colon
# A549 NSCLC = system: A549 NSCLC
# LOX IMVI melanoma = system: LOX IMVI melanoma
# HOP-92 NSCLC = system: HOP-92 NSCLC
# UACC-62 melanoma = system: UACC-62 melanoma
# SR leukemia = system: SR leukemia
# SK-MEL-5 melanoma = system: SK-MEL-5 melanoma
# KM12 colon = system: KM12 colon
# SNB-19 CNS = system: SNB-19 CNS
# BT-549 breast = system: BT-549 breast
# OVCAR-4 ovarian = system: OVCAR-4 ovarian
# MDA-MB-435 = system: MDA-MB-435
# HCT-15 colon = system: HCT-15 colon
# ACHN renal = system: ACHN renal
# OVCAR-8 ovarian = system: OVCAR-8 ovarian
# NCI-H23 lung = system: NCI-H23 lung
# NCI-H522 lung = system: NCI-H522 lung
# SK-MEL-28 melanoma = system: SK-MEL-28 melanoma
# HS 578T breast = system: HS 578T breast
# 786-0 renal = system: 786-0 renal
# MOLT-4 leukemia = system: MOLT-4 leukemia
# M14 melanoma = system: M14 melanoma
# CCRF-CEM leukemia = system: CCRF-CEM leukemia
# NCI-H460 lung = system: NCI-H460 lung
structure (smiles),measurement,setting,value
O=C(NNc1nc2cc(F)ccc2n2c(CN3CCCCC3)ccc12)c1cnccn1,GI50,HCC-2998 colon,1.14 µM
same,TGI,HCC-2998 colon,11.6 µM
same,GI50,SK-MEL-2 melanoma,2.13 µM
same,TGI,SK-MEL-2 melanoma,12.4 µM
same,GI50,SF-268 CNS,1.33 µM
same,TGI,SF-268 CNS,11.8 µM
same,GI50,SK-OV-3 ovarian,1.17 µM
same,TGI,SK-OV-3 ovarian,10.9 µM
same,GI50,RXF 393 renal,1.69 µM
same,TGI,RXF 393 renal,5.62 µM
same,GI50,MALME-3M melanoma,2.31 µM
same,TGI,MALME-3M melanoma,8.94 µM
same,GI50,PC-3 prostate,1.22 µM
same,TGI,PC-3 prostate,6.72 µM
same,GI50,UO-31 renal,0.33 µM
same,TGI,UO-31 renal,4.91 µM
same,GI50,HT29 colon,0.474 µM
same,TGI,HT29 colon,13.3 µM
same,GI50,HCT-116 colon,0.701 µM
same,TGI,HCT-116 colon,12.5 µM
same,GI50,DU-145 prostate,1.41 µM
same,TGI,DU-145 prostate,11.8 µM
same,GI50,MCF7 breast,1.58 µM
same,TGI,MCF7 breast,10.3 µM
same,GI50,RPMI-8226 leukemia,0.953 µM
same,TGI,RPMI-8226 leukemia,12.1 µM
same,GI50,A498 renal,13.9 µM
same,TGI,A498 renal,26.9 µM
same,GI50,UACC-257 melanoma,2.73 µM
same,TGI,UACC-257 melanoma,9.77 µM
same,GI50,NCI-H226 lung,1.64 µM
same,TGI,NCI-H226 lung,6.8 µM
same,GI50,T-47D breast,2.07 µM
same,TGI,T-47D breast,10.2 µM
same,GI50,SF-295 CNS,0.599 µM
same,TGI,SF-295 CNS,6.27 µM
same,GI50,COLO 205 colon,1.16 µM
same,TGI,COLO 205 colon,9.74 µM
same,GI50,SF-539 CNS,1.14 µM
same,TGI,SF-539 CNS,6.94 µM
same,GI50,OVCAR-5 ovarian,1.35 µM
same,TGI,OVCAR-5 ovarian,7.23 µM
same,GI50,OVCAR-3 ovarian,2.04 µM
same,TGI,OVCAR-3 ovarian,16 µM
same,GI50,HOP-62 NSCLC,1.14 µM
same,TGI,HOP-62 NSCLC,7.91 µM
same,GI50,U251 CNS,0.967 µM
same,TGI,U251 CNS,11.7 µM
same,GI50,TK-10 renal,0.969 µM
same,TGI,TK-10 renal,10.2 µM
same,GI50,SN12C renal,1.29 µM
same,TGI,SN12C renal,8.5 µM
same,GI50,IGROV1 ovarian,0.894 µM
same,TGI,IGROV1 ovarian,5.06 µM
same,GI50,EKVX NSCLC,0.525 µM
same,TGI,EKVX NSCLC,3.76 µM
same,GI50,HL-60(TB) leukemia,0.34 µM
same,TGI,HL-60(TB) leukemia,1.64 µM
same,GI50,K-562 leukemia,1.22 µM
same,TGI,K-562 leukemia,4.58 µM
same,GI50,MDA-MB-231 breast,1.26 µM
same,TGI,MDA-MB-231 breast,10.4 µM
same,GI50,CAKI-1 renal,0.918 µM
same,TGI,CAKI-1 renal,11 µM
same,GI50,MDA-MB-468 breast,1.2 µM
same,TGI,MDA-MB-468 breast,3.1 µM
same,GI50,NCI/ADR-RES ovarian,0.514 µM
same,TGI,NCI/ADR-RES ovarian,2.29 µM
same,GI50,SW-620 colon,1.07 µM
same,TGI,SW-620 colon,10.7 µM
same,GI50,A549 NSCLC,1.22 µM
same,TGI,A549 NSCLC,11.8 µM
same,GI50,LOX IMVI melanoma,0.682 µM
same,TGI,LOX IMVI melanoma,2.88 µM
same,GI50,HOP-92 NSCLC,1.19 µM
same,TGI,HOP-92 NSCLC,5.37 µM
same,GI50,UACC-62 melanoma,1.28 µM
same,TGI,UACC-62 melanoma,3.24 µM
same,GI50,SR leukemia,0.288 µM
same,TGI,SR leukemia,2.21 µM
same,GI50,SK-MEL-5 melanoma,1.81 µM
same,TGI,SK-MEL-5 melanoma,8.1 µM
same,GI50,KM12 colon,1.17 µM
same,TGI,KM12 colon,12.4 µM
same,GI50,SNB-19 CNS,1.54 µM
same,TGI,SNB-19 CNS,12 µM
same,GI50,BT-549 breast,1.57 µM
same,TGI,BT-549 breast,12.7 µM
same,GI50,OVCAR-4 ovarian,0.842 µM
same,TGI,OVCAR-4 ovarian,4.55 µM
same,GI50,MDA-MB-435,2.74 µM
same,TGI,MDA-MB-435,13.9 µM
same,GI50,HCT-15 colon,0.19 µM
same,TGI,HCT-15 colon,12.8 µM
same,GI50,ACHN renal,0.763 µM
same,TGI,ACHN renal,7.91 µM
same,GI50,OVCAR-8 ovarian,0.944 µM
same,TGI,OVCAR-8 ovarian,5.27 µM
same,GI50,NCI-H23 lung,1.39 µM
same,TGI,NCI-H23 lung,3.43 µM
same,GI50,NCI-H522 lung,1.36 µM
same,TGI,NCI-H522 lung,5.1 µM
same,GI50,SK-MEL-28 melanoma,2.7 µM
same,TGI,SK-MEL-28 melanoma,13.3 µM
same,GI50,HS 578T breast,2.62 µM
same,TGI,HS 578T breast,18 µM
same,GI50,786-0 renal,1.32 µM
same,TGI,786-0 renal,4.36 µM
same,GI50,MOLT-4 leukemia,0.388 µM
same,TGI,MOLT-4 leukemia,2.32 µM
same,GI50,M14 melanoma,1.49 µM
same,TGI,M14 melanoma,5.54 µM
same,GI50,CCRF-CEM leukemia,0.462 µM
same,TGI,CCRF-CEM leukemia,3.17 µM
same,GI50,NCI-H460 lung,0.392 µM
same,TGI,NCI-H460 lung,3.15 µM
